We go through five molecules from paper PMC8044163, “Vitamin D and lumisterol derivatives can act on liver X receptors (LXRs)” (Scientific Reports, 2021).

One series concerns the target T1, LBD of LXRβ (Homo sapiens, UniProt P55055).
T1 construct: purchased Thermo Fisher Scientific
T1 sequence (P55055 222-460 limits assumed): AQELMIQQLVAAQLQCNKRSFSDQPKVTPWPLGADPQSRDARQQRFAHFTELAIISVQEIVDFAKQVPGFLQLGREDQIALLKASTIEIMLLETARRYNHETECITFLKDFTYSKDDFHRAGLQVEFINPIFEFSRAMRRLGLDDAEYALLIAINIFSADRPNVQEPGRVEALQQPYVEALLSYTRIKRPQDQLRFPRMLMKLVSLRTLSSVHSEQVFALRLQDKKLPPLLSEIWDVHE
Description: LanthaScreen TR-FRET LXRβ coactivator assay (LXR binding assay). The series is classed as biochemical. The following applies: agonist; average values; read-out: LXRβ EC50. The method, then:
(§1) Binding assays of graded concentrations of vitamin D3 or lumisterol hydroxyderivatives to LXRα/β were performed using the LanthaScreen TR-FRET LXRα/β Coactivator kit (Thermo Fisher Scientific, Inc., Waltham, MA) following the manufacture’s protocol. Briefly, after addition of LXRα/β-LBD to the derivatives, a mixture of peptide (Fluorescein-TRAP220/DRIP-2 for LXRα or Fluorescein-D22 for LXRβ) and antibody (Tb-anti-GST) was added to the reaction followed by incubation in room temperature for 2 h. TR-FRET ratio was calculated by dividing the emission at 520 nm by the emission at 495 nm using Synergy neo2 (BioTek, Winooski, VT).

The test system of another series is genes downstream of LXR. Description: qPCR of genes downstream of LXR in murine dermal fibroblasts. The following applies: 10^–7 M, 24 h. It counts as cell-based, mouse. The method, then: All animal studies followed guidelines outlined by the NIH Guide for the Care and Use of Laboratory Animals and protocols were approved by the Institutional Animal Care and Use Committee at the NIEHS or the UAB. The study was carried out in compliance with the ARRIVE guidelines (http://www.nc3rs.org.uk/page.asp?id=1357). Skin samples from newborn C57BL/6 mice were collected at the NIEHS. Dermal fibroblasts were isolated from the skin of newborn mice, 1–2 day old. Briefly, we followed the protocols described previously. The skin was washed in PBS, cut into smaller pieces and incubated in 2.4 U/ml of dispase II (Roche) overnight at 4 °C. The dermis was separated from the epidermis and incubated in 0.1% collagenase (Roche) at 4 °C overnight. Next day, it was cut into smaller pieces and incubated for 1 h in 0.25% Trypsin (CellGrow) at 37 °C. Single cell suspension was prepared by pipetting and draining through a cell strainer. After centrifugation, cell pellets were suspended in DMEM medium containing 10% charcoal-stripped fetal bovine serum (cFBS), mouse fibroblasts growth factor (FGF) and 1% antibiotic, and inoculated into tissue culture dishes (Midwest Scientific, TPP). Cells, in early passages, from different mice were pooled together to provide representative samples for experiments. Fibroblasts were cultured in Petri dishes (10 cm in diameter) in DMEM and 10% cFBS and triplicate semi-confluent cultures were treated as described.
RNA isolated from either fibroblasts, HaCaT cells or brain was submitted for cDNA synthesis (High Capacity cDNA Reverse Transcription Kit with RNase Inhibitor, Applied Biosystems) following the manufacturers’ protocols. RT-PCR was carried out using Cyber green, in triplicates; as previously described. Approximately, 750 ng of cDNA was used for PCR reactions. GAPDH and CIC-B were used as internal controls. Primer sequences are listed in Supplementary Table 27. Data were analyzed using GraphPad Prism statistical software one way ANOVA or t-test, where appropriate; *p < 0.05; **p < 0.01; ***p < 0.001.
(Quantitative PCR measures a nucleic acid by following its amplification.)

A further series has as its system LXRα/β. The series can be described thus: Ligand induced translocation of LXRα/β to the nucleus, imaging flow cytometry in HaCaT. It counts as cell-based, human. The conditions noted are these: 10^–7 M, 12 h. The method, then:
HaCaT cells were plated in DMEM plus 5% cFBS either on a sterile glass cover slip placed in a well of a 6-well plates for immunofluorescence (IF) assays or TPP Petri dishes for image-stream flow cytometry, and treated with 10^–7 M D3- or L3-hydroxyderivatives or 0.1% ethanol (vehicle) as a negative control was added to each well, and the cells were incubated for 12 or 24 h at 37 °C with 5% CO2. For IF the cells were fixed in 4% paraformaldehyde for 15 min, incubated in 0.5% Triton X-100 in phosphate-buffered saline (PBS) for 5 min, and washed 3 times in PBS. After blocking with 2% bovine serum albumin (BSA) in PBS for 1 h at room temperature, the cells were treated with an anti-LXRα antibody (Novus Biologicals, LLC, Centennial, CO) at 1:200 in PBS supplemented with 2% BSA overnight in 4 °C. After washing the slides were incubated with a mouse anti-rabbit IgG-FITC (Santa Cruz Biotechnology, Inc, Dallas, TX) at 1:200 dilution for 1.5 h at 37 °C. After washing the slides were mounted using propidium iodide (PI) (Vector Labs, Burlingame, California) as a nuclear counterstain. The slides were examined using a KEYENCE America BZ-X710 Fluorescence Microscope (Itasca, IL). The images were subsequently analyzed using the JACoP plugin for colocalization analysis with ImageJ[74]. Five separate high-power field (40×) images were converted to grayscale and analyzed for each condition. Manders’ coefficient (M1), calculated using a preset threshold, was used to quantify the degree of colocalization between PI and LXRα with 0 representing no colocalization, and 1 representing perfect colocalization.
For Image Stream II (Amnis, Seattle, WA, USA) cytometer analyses, HaCaT cells were detached and processed as previously described. The cells were fixed with paraformaldehyde and permeabilized in methanol containing buffer[78],[79] and Hoechst stain (r37165, ThermoFisher) and rabbit antibodies to LXRα/β (sc 377260, AF 647, SantaCruz) or VDR (sc-13133, AF 488, SantaCruz) as described previously. Data were analyzed using IDEAS software (Amnis, Seattle, WA, USA).
On the technique in general: Flow cytometry measures light scatter and fluorescence of single cells or particles in a stream.

Another series addresses T2, LBD of LXRα (Homo sapiens, UniProt Q13133).
T2 construct: after addition of LXRα/β-LBD to the derivatives; purchased Thermo Fisher Scientific
T2 sequence (Q13133 209-447 limits assumed): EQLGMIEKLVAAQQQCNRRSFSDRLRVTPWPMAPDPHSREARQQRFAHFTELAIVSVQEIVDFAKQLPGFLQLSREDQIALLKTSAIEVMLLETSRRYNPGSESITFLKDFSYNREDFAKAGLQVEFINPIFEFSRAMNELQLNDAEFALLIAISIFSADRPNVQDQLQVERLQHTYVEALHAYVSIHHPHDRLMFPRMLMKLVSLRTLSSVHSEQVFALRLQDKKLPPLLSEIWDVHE
The series can be described thus: LanthaScreen TR-FRET LXRα coactivator assay (LXR binding assay). The series is classed as biochemical. The conditions noted are these: average values; for IC50: inverse agonist; for EC50: agonist, read-out: LXRα EC50. The procedure:
as §1
On the technique in general: Time-resolved FRET reads energy transfer from a long-lived donor to a nearby acceptor.

On to `C=C1C(=CC=C2CCCC3(C)C2CCC3C(C)(O)CC(O)CC(C)C)CC(O)CC1O` (stereo not shown) [1,20,23(OH)3D3], for which the EC50 (usually the concentration at which the effect is half-maximal) on LBD of LXRβ came to 1.6 µM. Moreover, in the series with genes downstream of LXR, the Cyp7a1 expression entry is “inhibited” and the “Fas (fatty acid synthase) expression” value is “stimulated”. In the series with LXRα/β, the “translocation of LXRα/β from the cytoplasm to the nucleus” value (“translocation of LXRα/β” for short) was “increased translocation”. Also, the IC50 (as a rule, the concentration that inhibits the measured activity by half) on LBD of LXRα came out at 2.1 µM.

For the molecule `C=C1/C(=C\C=C2/CCC[C@]3(C)[C@@H]([C@H](C)CCCC(C)(C)O)CC[C@@H]23)C[C@@H](O)C[C@@H]1O` [1,25(OH)2D3, reference compound], the EC50 at LBD of LXRβ was determined as 14 µM. Also, in the series with genes downstream of LXR, the Cyp7a1 expression entry was “stimulated” and the “Fas (fatty acid synthase) expression” value is “stimulated”. For the same molecule, the “translocation of LXRα/β” value in the series on LXRα/β is “increased translocation”. For the same molecule, at LBD of LXRα, the IC50 worked out at 1.1 µM.

For the molecule `CC(C)CCC[C@](C)(O)[C@H]1CC[C@H]2[C@@H]3CC=C4C[C@@H](O)CC[C@]4(C)[C@H]3CC[C@@]21C` [20(OH)C, 20-hydroxycholesterol, reference compound], in the series with genes downstream of LXR, the Abcg8 expression entry is “inhibited”, the “ApoE (apolipoprotein E) expression” value is recorded as “inhibited” and the Cyp7a1 expression result is listed as “inhibited”.

Turning to `C=C1CC[C@H](O)C/C1=C/C=C1\CCC[C@@]2(C)[C@H]1CC[C@@H]2[C@@](C)(O)CCCC(C)C` [20(OH)D3], at LBD of LXRβ, the EC50 was determined as 2.6 µM. Moreover, in the series with genes downstream of LXR, the Cyp7a1 expression entry was “stimulated” and the “Fas (fatty acid synthase) expression” value is recorded as “stimulated”. In the series with LXRα/β, the “translocation of LXRα/β” value is on record as “increased translocation”. For the same molecule, the EC50 at LBD of LXRα was 0.015 µM.

In the case of `C=C1CCC(O)CC1=CC=C1CCCC2(C)C1CCC2C(C)(O)CC(O)CC(C)C` (stereo not shown) [20,23(OH)2D3], the EC50 at LBD of LXRβ amounted to 26 µM. For the same molecule, in the series with genes downstream of LXR, the Abcg8 expression entry is given as “induced” and the “ApoE (apolipoprotein E) expression” value is reported as “enhanced”. In addition, the EC50 on LBD of LXRα was 1.1 µM.
